Laboratory results reported in PMC3880142 (ACS chemical biology, 2013).

Target: T1, CadD (Leptospira interrogans, UniProt Q72V44)
T1 sequence (Q72V44 1-442): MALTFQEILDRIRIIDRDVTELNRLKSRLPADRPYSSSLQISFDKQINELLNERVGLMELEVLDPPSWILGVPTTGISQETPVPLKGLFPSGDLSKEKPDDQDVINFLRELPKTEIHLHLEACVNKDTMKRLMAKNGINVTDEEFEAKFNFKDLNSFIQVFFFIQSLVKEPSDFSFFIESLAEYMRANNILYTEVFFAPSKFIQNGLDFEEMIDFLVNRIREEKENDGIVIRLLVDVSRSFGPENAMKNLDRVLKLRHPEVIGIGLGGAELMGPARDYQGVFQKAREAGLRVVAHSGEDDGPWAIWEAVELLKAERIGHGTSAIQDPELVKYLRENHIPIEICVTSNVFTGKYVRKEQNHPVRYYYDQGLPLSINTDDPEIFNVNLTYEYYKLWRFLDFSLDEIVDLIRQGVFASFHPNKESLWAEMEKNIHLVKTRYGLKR
Assay: UV spectrophotometric cAMP deamination at […] nm, inhibition
Assay type: biochemical

Which Ki does the source give for `O=P1(O)OC[C@H]2O[C@@H](n3cnc4cncnc43)[C@H](O)[C@@H]2O1` [cPuMP] here?
The Ki was 1300 ± 500 nM.
